The text below walks through data of US6642004B2, “Method for measuring nucleotides” (FMC Corporation, priority 2000, dated 2003).

Structures are written as SMILES. Like-named read-outs stand apart in the source and are kept apart here.

The test system of one experiment is Sf9 cells. Kind of experiment: quantification of cAMP generated in Sf9 cells after compound treatment ([3H]cAMP competition for bovine adrenal binding protein, single vessel). It counts as cell-based. Here is the method: On the day of the experiment, four-day sold Sf9 cells for use in the first step, with cell density at about 5,000,000 to about 6,000,000 cells, were spun in a Biofuge 15 centrifuge (available from Heneaus Instruments, Germany at 1310 rpm (500 g) for five minutes. After this time, the supernatant was discarded and sufficient Sf9 serum free medium (Sf900 II SFM) was added to the resulting cell pellet give a final concentration of 2,000,000 cells /ml. To these cells was added 0.02 ml of Solution J. Upon completion of addition, the resulting solution was gently mixed and then incubated at ambient temperature for 40 minutes, for use, below .
This method was performed in the manner disclosed in Example 1 except that synephrine was used rather than amitraz, and the concentrations of the synephrine dilutions were in the range of 0.00369 mM to 1.0 mM rather than 0.00123 mM to 0.3 mM.
This method was performed in the manner disclosed in Example 1 except that DL-octopamine was used rather than amitraz, and the concentrations of the DL-octopamine dilutions were in the range of about 0.0123 mM to about 3.0 mM rather than about 0.00123 mM to about 0.3 mM.
This method was performed in the manner disclosed in Example 1 except that DCDM was used rather than amitraz, and the concentrations of the DCDM dilutions were in the range of 0.000123 mM to about 0.03 mM rather than 0.00123 mM to about 0.3 mM.

For experiment [1], the system named is protein derived from a bovine adrenal gland.
Method: Thereafter, 50 μl of the above-prepared Sf9 cell solution was added to all of the wells. The microplates were incubated at ambient temperature for 45 minutes. After this time, the Sf9 cells were lysed by adding 50 μl of Solution H. The microplates were incubated a second time at ambient temperature for 15 to 20 minutes. After this time, 25 μl of Solution R followed by 25 μl of Solution Q were added to the microplates. The microplates were incubated for a third time at ambient temperature with shaking at 125 rpm for 90 minutes. The resulting mixtures were filtered under reduced pressure through glass fiber filtermats, which were soaked in 500 ml of Solution G for about 30 minutes prior to use. The filtermats were washed for ten seconds with ice-cold Solution F and then, dried at 60° C. for 45 to 60 minutes in a Stabil-Therm® oven (available from Blue M Electric Co., Blue Island, Ill.). After this time, the amount of the radiolabeled 3′,5′-monophosphate/binding protein complex bound to the filtermats was determined by the aforesaid quantification method.
The mark [2] stands for this setting: 0.000111 mM in the synephrine series.

Consider `CNCC(O)c1ccc(O)cc1` (centres unmarked) [Synephrine, synephrine], for which, in the experiment with Sf9 cells (setting [2]), the “Specific Counts (dpm)” value is reported as 4516.2 dpm and the “Total Counts (dpm) Determined” value is 5487 dpm. In the experiment on Sf9 cells (0.000123 mM), the “Specific Counts (dpm)” value is 6081.7 dpm, the “Total Counts (dpm) Determined” value worked out at 7052.5 dpm and the inhibition at 0.123 µM turned out to be 3.1%. In addition, in the experiment on Sf9 cells (0.00037 mM), the “Specific Counts (dpm)” value is recorded as 5260 dpm, the “Total Counts (dpm) Determined” value is reported as 6230.8 dpm and the inhibition at 0.37 µM was found to be 16.2%. In addition, in the experiment with Sf9 cells (0.00333 mM), the “Specific Counts (dpm)” value is given as 2732.7 dpm, the “Total Counts (dpm) Determined” value amounted to 3703.5 dpm and testing at 3.33 µM gave an inhibition of 56.4%. For the same compound, in the experiment with Sf9 cells (0.011 mM), the “Specific Counts (dpm)” value was found to be 1605.1 dpm, the “Total Counts (dpm) Determined” value is listed as 2575.9 dpm and at 11 µM the inhibition was 74.4%. Moreover, in the experiment on Sf9 cells (0.033 mM), the “Specific Counts (dpm)” value amounted to 1074.6 dpm, the “Total Counts (dpm) Determined” value was found to be 2045.4 dpm and 33 µM produced 82.9% inhibition.

As for `NCC(O)c1ccc(O)cc1` (racemic) [DL-octopamine], in the experiment on Sf9 cells (0.00041 mM), the “Specific Counts (dpm)” value was determined as 5942.2 dpm, the “Total Counts (dpm) Determined” value is given as 6899 dpm and the inhibition at 0.41 µM is 6.9%. In the experiment with Sf9 cells (0.00123 mM), the “Specific Counts (dpm)” value is recorded as 5639.1 dpm, the “Total Counts (dpm) Determined” value is given as 6595.9 dpm and at 1.23 µM the inhibition was 11.7%. Also, in the experiment on Sf9 cells (0.0037 mM), the “Specific Counts (dpm)” value is 4952.4 dpm, the “Total Counts (dpm) Determined” value was found to be 5909.2 dpm and the inhibition at 3.7 µM turned out to be 22.4%. Moreover, in the experiment on Sf9 cells (0.0111 mM), the “Specific Counts (dpm)” value stood at 3295.5 dpm, the “Total Counts (dpm) Determined” value stood at 4252.3 dpm and the inhibition at 11.1 µM turned out to be 48.4%. Also, in the experiment on Sf9 cells (0.0333 mM), the “Specific Counts (dpm)” value is recorded as 1934.3 dpm, the “Total Counts (dpm) Determined” value is recorded as 2891.1 dpm and the inhibition at 33.3 µM was found to be 69.7%. Moreover, in the experiment with Sf9 cells (0.1 mM), the “Specific Counts (dpm)” value is 1267.9 dpm, the “Total Counts (dpm) Determined” value stood at 2224.7 dpm and the inhibition at 100 µM was 80.1%.

With `Nc1ncnc2c1ncn2[C@@H]1O[C@@H]2COP(=O)(O)O[C@H]2[C@H]1O` [cAMP Standard, cyclic adenosine 3′,5′-monophosphate], the “% Inhibition” value is on record as 20.3% in experiment [1] (0.0000026 mM); 37.5% in experiment [1] (0.0000078 mM); 61.7% in experiment [1] (0.000023 mM); 78.8% in experiment [1] (0.00007 mM); 90.4% in experiment [1] (0.00021 mM); 95.5% in experiment [1] (0.00064 mM). Further, the “Specific Counts (dpm)” value is on record as 5398.5 dpm in experiment [1] (0.0000026 mM); 4234.8 dpm in experiment [1] (0.0000078 mM); 2595.8 dpm in experiment [1] (0.000023 mM); 1435.8 dpm in experiment [1] (0.00007 mM); 648.8 dpm in experiment [1] (0.00021 mM); 307.6 dpm in experiment [1] (0.00064 mM). For the same compound, the “Total Counts (dpm) Determined” value in experiment [1] (0.0000026 mM) is 5791 dpm; in experiment [1] (0.0000078 mM), 4627.3 dpm; in experiment [1] (0.000023 mM), 2988.3 dpm; in experiment [1] (0.00007 mM), 1828.3 dpm; in experiment [1] (0.00021 mM) it was 1041.3 dpm; in experiment [1] (0.00064 mM), 700.3 dpm.

As for `CN=CNc1ccc(Cl)cc1C` [DCDM, demethylchlordimeform], the “% Inhibition” value in the experiment with Sf9 cells (0.0000041 mM) stood at 11.7%; in the experiment with Sf9 cells (0.0000123 mM), 23.1%; in the experiment on Sf9 cells (0.000037 mM) it was 38%; with Sf9 cells (0.000111 mM), 58.3%; with Sf9 cells (0.000333 mM) it was 77.1%; with Sf9 cells (0.001 mM), 84.1%. For the same compound, the “Specific Counts (dpm)” value turned out to be 5687.8 dpm in the experiment with Sf9 cells (0.0000041 mM); 4954.7 dpm in the experiment on Sf9 cells (0.0000123 mM); 3993.7 dpm with Sf9 cells (0.000037 mM); 2689.4 dpm with Sf9 cells (0.000111 mM); 1472.8 dpm with Sf9 cells (0.000333 mM); 1026.2 dpm with Sf9 cells (0.001 mM). Besides, the “Total Counts (dpm) Determined” value is listed as 6512.1 dpm in the experiment on Sf9 cells (0.0000041 mM); 5779.0 dpm with Sf9 cells (0.0000123 mM); 4818 dpm in the experiment with Sf9 cells (0.000037 mM); 3513.7 dpm in the experiment on Sf9 cells (0.000111 mM); 2297.1 dpm in the experiment on Sf9 cells (0.000333 mM); 1850.5 dpm in the experiment with Sf9 cells (0.001 mM).

On to `Cc1ccc(/N=C/N(C)/C=N/c2ccc(C)cc2C)c(C)c1` [Amitraz, amitraz], for which, in the experiment with Sf9 cells (0.000041 mM), the “Specific Counts (dpm)” value was found to be 6020.4 dpm, the “Total Counts (dpm) Determined” value stood at 6899.4 dpm and testing at 0.041 µM gave an inhibition of 2.5%. In the experiment on Sf9 cells (0.000123 mM), the “Specific Counts (dpm)” value came out at 5130.2 dpm, the “Total Counts (dpm) Determined” value stood at 6009.2 dpm and at 0.123 µM the inhibition was 16.9%. In the experiment with Sf9 cells (0.00037 mM), the “Specific Counts (dpm)” value is 3939.2 dpm, the “Total Counts (dpm) Determined” value came out at 4818.2 dpm and testing at 0.37 µM gave an inhibition of 36.2%. For the same compound, in the experiment with Sf9 cells (0.00111 mM), the “Specific Counts (dpm)” value was found to be 2562.5 dpm, the “Total Counts (dpm) Determined” value is listed as 3441.5 dpm and the inhibition at 1.11 µM amounted to 58.5%. Further, in the experiment on Sf9 cells (0.00333 mM), the “Specific Counts (dpm)” value is 1428.2 dpm, the “Total Counts (dpm) Determined” value was found to be 2307.2 dpm and the inhibition at 3.33 µM came to 76.9%. In the experiment with Sf9 cells (0.01 mM), the “Specific Counts (dpm)” value was 1049.5 dpm, the “Total Counts (dpm) Determined” value amounted to 1928.5 dpm and the inhibition at 10 µM is 83%.
